Results published in patent US20240148821A1, “PHARMACEUTICAL USE OF CYCLIC PEPTIDE COMPOUND” (CHUGAI SEIYAKU KABUSHIKI KAISHA, priority 2021, published 2024).
Numbered stars: 1 amine (or outer) side, 2 acyl side, 3 side chain; on linkers, the order of the positions; unused ones are H or OH. Bridge positions count the residues as written; N and C are the ends. Square brackets hold non-standard residues; d marks the D form. Peptide text beside a SMILES is read from it. * marks the point of attachment. hPhe(3-Cl-4-CF3) = N[C@@H](CCc1ccc(C(F)(F)F)c(Cl)c1)C(=O)O; hPhe(3-F,4-CF3) = N[C@@H](CCc1ccc(C(F)(F)F)c(F)c1)C(=O)O; NEtPhe(4-CF3) = CCN[C@@H](Cc1ccc(C(F)(F)F)cc1)C(=O)O; NMePhe(4-CF3) = CN[C@@H](Cc1ccc(C(F)(F)F)cc1)C(=O)O; hPhe(4-CF3) = N[C@@H](CCc1ccc(C(F)(F)F)cc1)C(=O)O; NMePhe(4-Cl) = CN[C@@H](Cc1ccc(Cl)cc1)C(=O)O; X116 = O=C([C@H](CCc1cccc(F)c1)N[*:1])[*:2]; NMedβ3hAla = C[C@H](CC(=O)[*:2])N(C)[*:1]; NMeGly(cPent) = CN[C@H](C(=O)O)C1CCCC1; Phe(3-I) = N[C@@H](Cc1cccc(I)c1)C(=O)O; Phe(4-Me) = Cc1ccc(C[C@H](N)C(=O)O)cc1; NMeGly(cBu) = CN[C@H](C(=O)O)C1CCC1; NMeCha = CN[C@@H](CC1CCCCC1)C(=O)O; hhPhe = N[C@@H](CCCc1ccccc1)C(=O)O; X4 = C#CC[C@H](CC(=O)[*:2])N[*:1]; Hyp = O=C(O)[C@@H]1C[C@@H](O)CN1; NEtLeu = CCN[C@@H](CC(C)C)C(=O)O; NMeChg = CN[C@H](C(=O)O)C1CCCCC1; NMeF = CN[C@@H](Cc1ccccc1)C(=O)O; NMeI = CC[C@H](C)[C@H](NC)C(=O)O; NMeT = CN[C@H](C(=O)O)[C@@H](C)O; NMeD = CN[C@@H](CC(=O)O)C(=O)O; NMeL = CN[C@@H](CC(C)C)C(=O)O; Chg = N[C@H](C(=O)O)C1CCCCC1; NMeV = CN[C@H](C(=O)O)C(C)C; d(β3hA) = C[C@@H](N)CC(=O)O; NMeS = CN[C@@H](CO)C(=O)O; Pip = O=C(O)[C@@H]1CCCCN1; NMeA = CN[C@@H](C)C(=O)O; Piperidide = C1CCN(*)CC1; Pyrrolidide = C1CCN(*)C1; Ac5c = NC1(C(=O)O)CCCC1; Aze = O=C(O)[C@@H]1CCN1; Cyclopropyl = C1CC1*; Sar = CNCC(=O)O; Propyl = CCC*

Target: protein-protein interaction between Kras and SOS1 (biotin-tagged human Kras loaded with GDP, His-tagged human SOS1) (Homo sapiens (Human), UniProt P01116, G12D)
Assay: Protein-protein interaction inhibition between Kras and SOS1 (KrasG12D-SOS PPI) using AlphaScreen;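 further: kras produced in E. coli, Ni-coupled donor beads and streptavidin acceptor beads, excitation 680 nm with emission detected at 520–620 nm via singlet oxygen transfer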
Format: biochemical
Conditions: AlphaScreen; biotin-tagged human Kras loaded with GDP, His-tagged human SOS1; read-out: KRAS G12D-SOS PPI IC50

SMILES	IC50 [µM]
CC[C@H](C)[C@@H]1NC(=O)[C@@H]2CCCCN2C(=O)C[C@@H](C)NC(=O)[C@H](CC(C)C)N(C)C(=O)[C@H](Cc2ccccc2)N(C)C(=O)[C@@H]2CCCN2C(=O)[C@H](CCc2ccc(C(F)(F)F)cc2)NC(=O)CN(C)C(=O)[C@H](Cc2ccc(Cl)cc2)N(C)C(=O)CN(C)C(=O)CN(C)C1=O [Compound 632] (cyclo(I[Sar][Sar][NMePhe(4-Cl)][Sar][hPhe(4-CF3)]P[NMeF][NMeL][d(β3hA)][Pip]))	0.073
CCO[C@@H]1C[C@H]2C(=O)N(C)[C@@H](Cc3ccccc3)C(=O)N(C)[C@@H](CC(C)C)C(=O)N[C@H](C(=O)N3CCCC3)CC(=O)N(C)[C@@H](C)C(=O)N[C@@H]([C@@H](C)CC)C(=O)N(C)CC(=O)N(C)CC(=O)N(C)[C@@H](Cc3ccc(Cl)cc3)C(=O)N(C)CC(=O)N[C@@H](Cc3cccc(I)c3)C(=O)N2C1 [Compound 634] ([NMeA]I[Sar][Sar][NMePhe(4-Cl)][Sar][Phe(3-I)][Hyp](Et)[NMeF][NMeL]D-Pyrrolidide; lactam N-11)	0.26
CC[C@H](C)[C@@H]1NC(=O)[C@H](CC(C)C)N(C)C(=O)C[C@@H](C(=O)N2CCCCC2)N(C)C(=O)[C@H]([C@@H](C)OC)N(C)C(=O)C2(CCCC2)NC(=O)[C@@H]2CCCN2C(=O)[C@H](CCc2ccc(C(F)(F)F)c(Cl)c2)NC(=O)CN(C)C(=O)[C@H](CC2CCCCC2)N(C)C(=O)[C@@H]2CCN2C(=O)[C@H](C)N(C)C1=O [Compound 639] ([NMeL]I[NMeA][Aze][NMeCha][Sar][hPhe(3-Cl-4-CF3)]P[Ac5c][NMeT](Me)[NMeD]-Piperidide; lactam N-11)	0.014
CC(C)C[C@H]1C(=O)N[C@@H](C2CCCCC2)C(=O)N(C)[C@@H](C)C(=O)N2CC[C@H]2C(=O)N(C)[C@@H](CC2CCCCC2)C(=O)N(C)CC(=O)N[C@@H](CCc2ccc(C(F)(F)F)c(Cl)c2)C(=O)N2CCC[C@H]2C(=O)NC2(CCCC2)C(=O)N(C)[C@@H](C(C)C)C(=O)N(C)[C@H](C(=O)N2CCCCC2)CC(=O)N1C [Compound 642] ([NMeL][Chg][NMeA][Aze][NMeCha][Sar][hPhe(3-Cl-4-CF3)]P[Ac5c][NMeV][NMeD]-Piperidide; lactam N-11)	0.054
CCO[C@@H]1C[C@H]2C(=O)NC3(CCCC3)C(=O)N(C)[C@@H](C3CCCCC3)C(=O)N(C)[C@H](C)CC(=O)N(C)[C@@H](CC(C)C)C(=O)N[C@@H]([C@@H](C)CC)C(=O)N(C)[C@@H](C)C(=O)N3CC[C@H]3C(=O)N(C)[C@@H](Cc3ccc(C(F)(F)F)cc3)C(=O)N(C)CC(=O)N[C@@H](CCc3ccc(C(F)(F)F)c(Cl)c3)C(=O)N2C1 [Compound 652] (cyclo([Ac5c][NMeChg][NMedβ3hAla][NMeL]I[NMeA][Aze][NMePhe(4-CF3)][Sar][hPhe(3-Cl-4-CF3)][Hyp](Et)))	0.0043
CC[C@H](C)[C@@H]1NC(=O)[C@H](C)N(C)C(=O)C[C@@H](C(=O)N2CCCCC2)N(C)C(=O)[C@H](C(C)C)N(C)C(=O)C2(CCCC2)NC(=O)[C@@H]2CCCN2C(=O)[C@H](CCCc2ccccc2)NC(=O)CN(C)C(=O)[C@H](CC2CCCCC2)N(C)C(=O)[C@@H]2CCN2C(=O)[C@H](C)N(C)C1=O [Compound 659] ([NMeA]I[NMeA][Aze][NMeCha][Sar][hhPhe]P[Ac5c][NMeV][NMeD]-Piperidide; lactam N-11)	0.13
CC[C@H](C)[C@@H]1NC(=O)[C@H](CC(C)C)N(C)C(=O)C[C@@H](C(=O)N(C)C)N(C)C(=O)[C@H]([C@@H](C)CC)N(C)C(=O)[C@H](C(C)C)NC(=O)[C@@H]2CCCN2C(=O)[C@H](CCc2ccc(C(F)(F)F)c(Cl)c2)NC(=O)CN(C)C(=O)[C@H](Cc2ccc(C)cc2)NC(=O)[C@@H]2CCN2C(=O)[C@H](C)N(C)C1=O [Compound 660] ([NMeL]I[NMeA][Aze][Phe(4-Me)][Sar][hPhe(3-Cl-4-CF3)]PV[NMeI][NMeD]-NMe2; lactam N-11)	0.21
CC[C@H](C)[C@@H]1NC(=O)[C@H](CC(C)C)N(C)C(=O)C[C@@H](C)NC(=O)[C@H](C(C)C)N(C)C(=O)C2(CCCC2)NC(=O)[C@@H]2CCCN2C(=O)[C@H](CCc2ccc(C(F)(F)F)c(Cl)c2)NC(=O)CN(C)C(=O)[C@H](CC2CCCCC2)N(C)C(=O)[C@@H]2CCN2C(=O)CN(C)C1=O [Compound 663] (cyclo([Ac5c][NMeV][d(β3hA)][NMeL]I[Sar][Aze][NMeCha][Sar][hPhe(3-Cl-4-CF3)]P))	0.016
CC[C@H](C)[C@@H]1NC(=O)[C@H](CC(C)C)N(CC)C(=O)C[C@@H](C(=O)N2CCCCC2)N(C)C(=O)[C@H](C(C)C)N(C)C(=O)C2(CCCC2)NC(=O)[C@@H]2CCCN2C(=O)[C@H](CCc2ccc(C(F)(F)F)c(Cl)c2)NC(=O)CN(C)C(=O)[C@H](CC2CCCCC2)N(C)C(=O)[C@@H]2CCN2C(=O)[C@H](C)N(C)C1=O [Compound 667] ([NEtLeu]I[NMeA][Aze][NMeCha][Sar][hPhe(3-Cl-4-CF3)]P[Ac5c][NMeV][NMeD]-Piperidide; lactam N-11)	0.0051
C#CC[C@@H]1CC(=O)N(C)[C@@H](C(C)C)C(=O)N[C@@H]([C@@H](C)CC)C(=O)N(C)CC(=O)N(C)CC(=O)N(C)[C@@H](Cc2ccc(Cl)cc2)C(=O)N(C)CC(=O)N[C@@H](CCc2ccc(C(F)(F)F)cc2)C(=O)N(C)[C@@H](CC(C)C)C(=O)NC2(CCCC2)C(=O)N(C)[C@@H](CC(C)C)C(=O)N1 [Compound 669] (cyclo([Ac5c][NMeL][X4][NMeV]I[Sar][Sar][NMePhe(4-Cl)][Sar][hPhe(4-CF3)][NMeL]))	0.22
CC[C@H](C)[C@@H]1NC(=O)[C@H](CC(C)C)N(C)C(=O)C[C@@H](C(=O)N2CCCCC2)N(C)C(=O)[C@H](C2CCC2)N(C)C(=O)C2(CCCC2)NC(=O)[C@@H]2CCCN2C(=O)[C@H](CCc2ccc(C(F)(F)F)c(Cl)c2)NC(=O)CN(C)C(=O)[C@H](CC2CCCCC2)N(C)C(=O)[C@@H]2CCN2C(=O)[C@H](C)N(C)C1=O [Compound 672] ([NMeL]I[NMeA][Aze][NMeCha][Sar][hPhe(3-Cl-4-CF3)]P[Ac5c][NMeGly(cBu)][NMeD]-Piperidide; lactam N-11)	0.0025
CCO[C@@H]1C[C@H]2C(=O)NC3(CCCC3)C(=O)N(C)[C@@H]([C@@H](C)CC)C(=O)N(C)[C@H](C)CC(=O)N(C)[C@@H](CC(C)C)C(=O)N[C@@H]([C@@H](C)CC)C(=O)N[C@@H](C)C(=O)N3CC[C@H]3C(=O)N(CC)[C@@H](Cc3ccc(C(F)(F)F)cc3)C(=O)N(C)CC(=O)N[C@@H](CCc3ccc(C(F)(F)F)c(Cl)c3)C(=O)N2C1 [Compound 673] (cyclo(A[Aze][NEtPhe(4-CF3)][Sar][hPhe(3-Cl-4-CF3)][Hyp](Et)[Ac5c][NMeI][NMedβ3hAla][NMeL]I))	0.011
CC[C@H](C)[C@@H]1NC(=O)[C@H](CC(C)C)N(C)C(=O)C[C@@H](C(=O)N2CCCCC2)N(C)C(=O)[C@H]([C@@H](C)CC)N(C)C(=O)C2(CCCC2)NC(=O)[C@@H]2CCCN2C(=O)[C@H](CCc2ccc(C(F)(F)F)c(F)c2)NC(=O)CN(C)C(=O)[C@H](C2CCCC2)N(C)C(=O)[C@@H]2CCN2C(=O)[C@H](C)N(C)C1=O [Compound 674] ([NMeL]I[NMeA][Aze][NMeGly(cPent)][Sar][hPhe(3-F,4-CF3)]P[Ac5c][NMeI][NMeD]-Piperidide; lactam N-11)	0.0056
CC[C@H](C)[C@@H]1NC(=O)[C@H](CC(C)C)N(C)C(=O)C[C@@H](C(=O)N2CCCCC2)N(C)C(=O)[C@H](C(C)C)N(C)C(=O)C2(CCCC2)NC(=O)[C@@H]2CCCN2C(=O)[C@H](CCc2ccc(C(F)(F)F)c(Cl)c2)NC(=O)CN(C)C(=O)[C@H](CC2CCCCC2)N(C)C(=O)[C@@H]2CCN2C(=O)[C@H](COC2CC2)N(C)C1=O [Compound 676] ([NMeL]I[NMeS](Cyclopropyl)[Aze][NMeCha][Sar][hPhe(3-Cl-4-CF3)]P[Ac5c][NMeV][NMeD]-Piperidide; lactam N-11)	0.031
CC[C@H](C)[C@@H]1NC(=O)[C@H](CC(C)C)N(C)C(=O)C[C@@H](C(=O)N(C)C)NC(=O)[C@H](C2CCCC2)N(C)C(=O)C2(CCCC2)NC(=O)[C@@H]2CCCN2C(=O)[C@H](CCc2ccc(C(F)(F)F)c(Cl)c2)NC(=O)CN(C)C(=O)[C@H](CC2CCCCC2)N(C)C(=O)[C@@H]2CCN2C(=O)[C@H](C)N(C)C1=O [Compound 677] ([NMeL]I[NMeA][Aze][NMeCha][Sar][hPhe(3-Cl-4-CF3)]P[Ac5c][NMeGly(cPent)]D-NMe2; lactam N-11)	0.0041
CC[C@H](C)[C@@H]1NC(=O)[C@H](CC(C)C)N(C)C(=O)C[C@@H](C(=O)N2CCCCC2)N(C)C(=O)[C@H](C(C)C)N(C)C(=O)C2(CCCC2)NC(=O)[C@@H]2CCCN2C(=O)[C@H](CCc2ccc(C(F)(F)F)c(Cl)c2)NC(=O)CN(C)C(=O)[C@H](Cc2ccc(Cl)cc2)N(C)C(=O)[C@@H]2CCN2C(=O)[C@H](C)N(C)C1=O [Compound 680] ([NMeL]I[NMeA][Aze][NMePhe(4-Cl)][Sar][hPhe(3-Cl-4-CF3)]P[Ac5c][NMeV][NMeD]-Piperidide; lactam N-11)	0.0099
CCCOC[C@H]1C(=O)N(C)CC(=O)N[C@@H](CCc2ccc(C(F)(F)F)c(F)c2)C(=O)N2CCC[C@H]2C(=O)NC2(CCCC2)C(=O)N(C)[C@@H]([C@@H](C)CC)C(=O)N(C)[C@H](C(=O)N2CCCC2)CC(=O)N(C)[C@@H](CC(C)C)C(=O)N[C@@H]([C@@H](C)CC)C(=O)N(C)[C@@H](C)C(=O)N2CC[C@H]2C(=O)N1C [Compound 684] ([NMeL]I[NMeA][Aze][NMeS](Propyl)[Sar][hPhe(3-F,4-CF3)]P[Ac5c][NMeI][NMeD]-Pyrrolidide; lactam N-11)	0.0019
CC[C@H](C)[C@@H]1NC(=O)[C@H](C)N(C)C(=O)C[C@@H](C(=O)N2CCCCC2)N(C)C(=O)[C@H](C(C)C)N(C)C(=O)C2(CCCC2)NC(=O)[C@@H]2CCCN2C(=O)[C@H](CCc2cccc(F)c2)NC(=O)CN(C)C(=O)[C@H](CC2CCCCC2)N(C)C(=O)[C@@H]2CCN2C(=O)[C@H](C)N(C)C1=O [Compound 685] ([NMeA]I[NMeA][Aze][NMeCha][Sar][X116]P[Ac5c][NMeV][NMeD]-Piperidide; lactam N-11)	0.13
